Values quoted from earlier work as cited in patent publication US20040142823A1, “Adjuvant compositions and pesticides” (priority 2003, published 2004).
Where two headings read alike, the source gives them in different places.

Structure (SMILES): CNC(=O)CSP(=S)(OC)OC [Cygon, dimethoate]
- Time to lose 50 percent of pest control power (mixed in water of pH 9): 48 min
- Time to lose 50 percent of pest control power (pH of 6): 720 min
